Each block holds one compound with its values, some of them ahead of it.
Assays:
[1] = biological target: MRCKA (Homo sapiens, UniProt Q5VT25); assay: MIB/MS kinome profiling of inhibitor-treated OVSAHO cells; assay type: cell-based; parameters: endogenous in cells; host or cells: OVSAHO; details: 2 μM, 4 hour treatment
Description: (§1) OVSAHO cells were treated with inhibitors at a dose of 2 μM for 4 hours and kinase inhibition profiles determined by MIB/MS. Bar graph depicts % of kinase bound to MIBs relative to DMSO control as determined by label free quantitation.
(§2) OVSAHO cells were treated with 2 μM of inhibitor for 4 hours and analyzed by MIB/MS. Scatterplot depicts difference in kinase MIB-binding of drug treated relative to control DMSO as determined by Students T-test.
(§3) MIB-based kinome profiling was performed on several of these molecules in HGSOC cells to determine kinome-wide inhibition profiles.
(§4) Experiments using MIB/MS were performed as previously described (Duncan et al., Cell, 2012, 149, 307-321; and Kurimchak et al., Cell Reports, 2016, 16, 1273-1286). Briefly, cells or tumors were lysed on ice in buffer containing 50 mM HEPES (pH 7.5), 0.5% Triton X-100, 150 mM NaCl, 1 mM EDTA, 1 mM EGTA, 10 mM sodium fluoride, 2.5 mM sodium orthovanadate, 1× protease inhibitor cocktail (Roche), and 1% each of phosphatase inhibitor cocktails 2 and 3 (Sigma). Particulate was removed by centrifugation of lysates at 13,000 rpm for 10 minutes at 4° C. and filtration through 0.2 μm syringe filters. Protein concentrations were determined by BCA analysis (Thermo). To compare kinome signatures within and across such large sample sizes, a super-SILAC method was designed (Neubert et al., Nat. Meth., 2010, 7, 361-362) consisting of a cocktail of cancer cell lines that encompasses the activity of the “cancer kinome” to be used as a control for individual samples. Five cancer cell lines were selected from the NCI-60 panel (UACC257, MOLT4, COL0205, ACHN and PC3) that differed in their origin, gene expression patterns and mutation status. The cancer cell lines were labeled using SILAC and mixed equally providing a diverse SILAC ([^13C6,^15N4] arginine (Arg^10) and […] (Lys^8)) heavy kinome reference standard (HKS) to be used repeatedly in kinome profiling assays. An equal amount of the HKS was added to the non-labeled sample (cell, tumor or normal tissue) providing a quantitative strategy to compare kinome activity/levels across samples, amongst treatments and, importantly, across time. […]
(§5) Proteolytic peptides were resuspended in 0.1% formic acid and separated with a Thermo RSLC Ultimate 3000 on a Thermo Easy-Spray C18 PepMap 75 μm×50 cm C-18 2 μm column with a 240 minute gradient of 4-25% acetonitrile with 0.1% formic acid at 300 nL/min and 50° C. Eluted peptides were analyzed by a Thermo Q Exactive plus mass spectrometer utilizing a top 15 methodology in which the 15 most intense peptide precursor ions were subjected to fragmentation.

[2] = tested on: Kuramochi; assay: Short-term growth assay (CellTiter-Glo cell viability), kinase inhibitors; assay type: cell-based, human; details: drug 1.2 uM
Description: (§6) Cell viability was determined by Cell Titer Glo analysis.
(§7) To explore the therapeutic potential of the HGSOC kinome signature, a detailed molecular analysis of protein levels/activity, growth and survival functions was carried out in a panel of recently validated HGSOC cell lines (Coscia et al., Nat. Commun., 2016, 7, 12645) that harbor commonly encountered HGSOC mutations and genetic rearrangements (see, FIG. 5A).
(§8) For short-term growth assays, 3000-5000 cells were plated per well in 96-well plates and allowed to adhere and equilibrate overnight. Drug was added the following morning and after 120 hours of drug treatment, cell viability was assessed using the CellTiter-Glo Luminescent cell viability assay according to manufacturer (Promega). Students t tests were performed for statistical analyses and p values ≤0.05 were considered significant. For colony formation assays, cells were plated in 24-well dishes (3000-5000 cells per well) and incubated overnight before continuous drug treatment for 14 days, with drug and media replaced twice weekly. At the end of treatment, cells were rinsed with PBS and fixed with chilled methanol for 10 minutes at −20° C. Methanol was removed by aspiration, and cells were stained with 0.5% crystal violet in 20% methanol for 20 minutes at room temperature, washed with distilled water, and scanned.

[3] = tested on: SNU-119; assay: as above; assay type: cell-based, human; details: drug 1.2 uM
Description: as §6, §7, §8

[4] = tested on: OVCAR4; assay: as above; assay type: cell-based, human; details: drug 1.2 uM
Description: as §6, §7, §8

[5] = tested on: OVSAHO; assay: as above; assay type: cell-based, human; details: drug 1.2 uM
Description: as §6, §7, §8

[6] = tested on: COV362; assay: as above; assay type: cell-based, human; details: drug 1.2 uM
Description: as §6
COV362 cells were treated with increasing concentrations of A-674563 and cell viability assessed by Cell Titer Glo according to manufacturer's instructions. Data represent the mean of six replicates.
as §7, §8

[7] = biological target: T1, MRCKB (Homo sapiens, UniProt Q9Y5S2); assay: MIB/MS kinome profiling of inhibitor-treated OVSAHO cells; assay type: cell-based; details: 2 μM, 4 hour treatment
T1 construct: endogenous in cells; host or cells: OVSAHO
T1 sequence (Q9Y5S2 whole entry): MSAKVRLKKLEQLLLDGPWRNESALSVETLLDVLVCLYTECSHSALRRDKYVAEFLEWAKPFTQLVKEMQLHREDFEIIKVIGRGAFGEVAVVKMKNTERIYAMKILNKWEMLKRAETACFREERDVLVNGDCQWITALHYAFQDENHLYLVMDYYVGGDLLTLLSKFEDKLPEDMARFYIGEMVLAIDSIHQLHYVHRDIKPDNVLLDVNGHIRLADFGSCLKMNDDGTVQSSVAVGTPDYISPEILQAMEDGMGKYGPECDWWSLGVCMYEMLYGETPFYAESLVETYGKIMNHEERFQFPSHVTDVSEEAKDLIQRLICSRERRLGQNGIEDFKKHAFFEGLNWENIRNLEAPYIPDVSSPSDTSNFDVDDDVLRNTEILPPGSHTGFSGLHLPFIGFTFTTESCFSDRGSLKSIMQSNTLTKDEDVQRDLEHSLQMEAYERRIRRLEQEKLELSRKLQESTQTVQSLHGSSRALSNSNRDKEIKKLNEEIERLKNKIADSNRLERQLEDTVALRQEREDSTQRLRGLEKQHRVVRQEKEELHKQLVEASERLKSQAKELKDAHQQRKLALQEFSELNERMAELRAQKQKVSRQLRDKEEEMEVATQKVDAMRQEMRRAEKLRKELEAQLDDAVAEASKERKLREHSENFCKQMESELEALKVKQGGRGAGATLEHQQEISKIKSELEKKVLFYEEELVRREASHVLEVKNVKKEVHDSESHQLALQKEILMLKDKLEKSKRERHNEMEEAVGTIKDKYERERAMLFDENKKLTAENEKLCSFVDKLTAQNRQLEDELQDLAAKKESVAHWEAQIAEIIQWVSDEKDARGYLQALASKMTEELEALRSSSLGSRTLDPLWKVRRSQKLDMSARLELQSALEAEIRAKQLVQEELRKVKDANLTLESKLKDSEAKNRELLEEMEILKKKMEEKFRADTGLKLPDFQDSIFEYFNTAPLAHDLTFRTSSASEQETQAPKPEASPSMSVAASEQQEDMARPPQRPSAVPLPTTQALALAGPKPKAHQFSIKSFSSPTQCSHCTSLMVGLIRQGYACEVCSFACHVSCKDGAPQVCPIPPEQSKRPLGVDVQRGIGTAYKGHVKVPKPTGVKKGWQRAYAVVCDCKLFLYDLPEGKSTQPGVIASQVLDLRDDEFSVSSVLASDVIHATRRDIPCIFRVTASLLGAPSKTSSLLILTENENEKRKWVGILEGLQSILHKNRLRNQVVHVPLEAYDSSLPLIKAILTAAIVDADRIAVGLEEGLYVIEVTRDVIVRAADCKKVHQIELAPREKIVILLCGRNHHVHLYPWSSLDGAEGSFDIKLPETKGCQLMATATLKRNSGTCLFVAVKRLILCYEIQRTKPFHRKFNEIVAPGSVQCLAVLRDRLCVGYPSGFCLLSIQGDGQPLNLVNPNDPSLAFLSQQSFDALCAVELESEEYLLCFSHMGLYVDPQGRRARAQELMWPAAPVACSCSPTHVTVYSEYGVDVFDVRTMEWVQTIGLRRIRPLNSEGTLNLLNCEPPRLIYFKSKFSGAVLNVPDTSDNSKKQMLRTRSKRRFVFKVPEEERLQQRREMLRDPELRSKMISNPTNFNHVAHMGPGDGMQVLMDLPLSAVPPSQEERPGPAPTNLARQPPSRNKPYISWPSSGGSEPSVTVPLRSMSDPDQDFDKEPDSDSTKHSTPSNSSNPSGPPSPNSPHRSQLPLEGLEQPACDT
Description: as §1, §2, §3, §4, §5

[8] = tested on: FAK1, MLC and Paxillin phosphorylation; FAK1 and CHEK1 protein levels; assay: Western blot of signaling in inhibitor-treated HGSOC cells; assay type: cell-based, human; details: HGSOC (COV362) cells, increasing doses 0.5, 1 or 3 μM, 48 hours
Description: COV362 cells were treated with 0.5, 1 or 3 μM of A-674563 or SB-772077 for 48 hours and signaling monitored by western blot.
Samples were harvested in MIB lysis buffer, subjected to SDS-PAGE […] and transferred to PVDF membranes before western blotting with primary antibodies. For pMYPT and pMLC blots, cells were harvested in a buffer containing 1% (w/v) SDS, 50 mM Tris pH 7.5 supplemented with protease and phosphatase inhibitors buffer and were passed through QIAshredder columns (Qiagen, 79654), (Unbekandt et al., Cell Commun. Signal., 2014, 12, 54). For the list of primary antibodies used, see Table 4. Secondary HRP-anti-rabbit and HRP-anti-mouse were obtained from ThermoFisher Scientific. SuperSignal West Pico and Femto Chemiluminescent Substrates (Thermo) were used to visualize blots.

[9] = biological target: T2, ROCK1 (Homo sapiens, UniProt Q13464); assay: MIB/MS kinome profiling of inhibitor-treated OVSAHO cells; assay type: cell-based; details: 2 μM, 4 hours
T2 construct: endogenous in cells; host or cells: OVSAHO
T2 sequence (Q13464 whole entry): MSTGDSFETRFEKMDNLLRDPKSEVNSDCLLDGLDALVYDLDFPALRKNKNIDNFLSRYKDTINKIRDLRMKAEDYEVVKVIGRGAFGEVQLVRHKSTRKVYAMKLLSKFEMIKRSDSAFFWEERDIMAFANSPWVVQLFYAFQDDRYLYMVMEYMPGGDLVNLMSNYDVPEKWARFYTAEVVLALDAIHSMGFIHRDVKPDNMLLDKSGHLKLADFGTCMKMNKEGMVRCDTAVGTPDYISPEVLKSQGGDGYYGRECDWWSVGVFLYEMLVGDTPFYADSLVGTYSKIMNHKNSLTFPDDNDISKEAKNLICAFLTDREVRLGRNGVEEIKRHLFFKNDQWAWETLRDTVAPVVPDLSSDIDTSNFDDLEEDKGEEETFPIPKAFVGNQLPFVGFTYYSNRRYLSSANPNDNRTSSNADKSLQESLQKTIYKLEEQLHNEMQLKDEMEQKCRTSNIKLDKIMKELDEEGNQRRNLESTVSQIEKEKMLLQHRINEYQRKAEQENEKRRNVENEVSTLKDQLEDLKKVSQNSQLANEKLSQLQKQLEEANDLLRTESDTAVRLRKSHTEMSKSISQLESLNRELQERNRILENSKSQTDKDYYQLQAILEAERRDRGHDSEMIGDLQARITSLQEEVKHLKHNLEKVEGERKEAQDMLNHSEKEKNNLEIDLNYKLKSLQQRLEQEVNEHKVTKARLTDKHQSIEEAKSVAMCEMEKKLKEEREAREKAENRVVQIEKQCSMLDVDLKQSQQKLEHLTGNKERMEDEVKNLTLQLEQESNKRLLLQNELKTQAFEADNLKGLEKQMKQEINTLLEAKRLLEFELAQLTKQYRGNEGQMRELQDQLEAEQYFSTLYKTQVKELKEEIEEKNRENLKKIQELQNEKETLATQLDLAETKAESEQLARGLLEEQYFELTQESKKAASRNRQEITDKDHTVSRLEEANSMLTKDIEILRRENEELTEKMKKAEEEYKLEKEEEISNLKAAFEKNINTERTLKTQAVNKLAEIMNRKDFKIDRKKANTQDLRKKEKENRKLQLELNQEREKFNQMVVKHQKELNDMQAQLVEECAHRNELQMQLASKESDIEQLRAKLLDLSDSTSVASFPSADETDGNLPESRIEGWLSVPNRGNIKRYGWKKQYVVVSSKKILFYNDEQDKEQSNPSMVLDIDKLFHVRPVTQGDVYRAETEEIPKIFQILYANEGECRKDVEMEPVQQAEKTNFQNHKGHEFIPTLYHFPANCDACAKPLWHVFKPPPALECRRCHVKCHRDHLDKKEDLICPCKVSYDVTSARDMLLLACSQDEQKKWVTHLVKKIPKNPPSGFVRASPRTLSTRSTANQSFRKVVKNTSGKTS
Description: as §2
Scatter plot depicts statistical differences in MIB-binding as a ratio of inhibitor/DMSO. Cells were treated with inhibitors at a dose of 2 μM and subjected to MIB/MS. Changes in MIB-binding were quantified using label free quantitation. Data presented in (A) are triplicate experiments SEM. *p≤0.05 by student's t-test.
as §3
Experiments using MIB/MS were performed as previously described (Duncan et al., Cell, 2012, 149, 307-321; and Kurimchak et al., Cell Reports, 2016, 16, 1273-1286). […] Protein concentrations were determined by BCA analysis (Thermo). […] An equal amount of the HKS was added to the non-labeled sample (cell, tumor or normal tissue) providing a quantitative strategy to compare kinome activity/levels across samples, amongst treatments and, importantly, across time. […]

[10] = tested on: HGSOC cells; assay: Cell viability of HGSOC cell line panel (Cell Titer Glo); assay type: cell-based, human; details: increasing concentrations; Cell Titer Glo
Description: Cells were treated with increasing concentrations of PF-03758309 and cell viability assessed by Cell Titer Glo according to manufacturer's instructions. Data represent the mean of six replicates.
Cell viability was assessed by Cell Titer Glo according to manufacturing. Data represent the mean of six replicates.
as §8

[11] = biological target: T3, ROCK2 (Homo sapiens, UniProt O75116); assay: MIB/MS kinome profiling of inhibitor-treated OVSAHO cells; assay type: cell-based; details: 2 μM, 4 hours
T3 construct: endogenous in cells; host or cells: OVSAHO
Description: as §2, §3
Experiments using MIB/MS were performed as previously described (Duncan et al., Cell, 2012, 149, 307-321; and Kurimchak et al., Cell Reports, 2016, 16, 1273-1286). Briefly, cells or tumors were lysed on ice in buffer containing 50 mM HEPES (pH 7.5), 0.5% Triton X-100, 150 mM NaCl, 1 mM EDTA, 1 mM EGTA, 10 mM sodium fluoride, 2.5 mM sodium orthovanadate, 1× protease inhibitor cocktail (Roche), and 1% each of phosphatase inhibitor cocktails 2 and 3 (Sigma). Particulate was removed by centrifugation of lysates at 13,000 rpm for 10 minutes at 4° C. and filtration through 0.2 μm syringe filters. Protein concentrations were determined by BCA analysis (Thermo). To compare kinome signatures within and across such large sample sizes, a super-SILAC method was designed (Neubert et al., Nat. Meth., 2010, 7, 361-362) consisting of a cocktail of cancer cell lines that encompasses the activity of the “cancer kinome” to be used as a control for individual samples. […] An equal amount of the HKS was added to the non-labeled sample (cell, tumor or normal tissue) providing a quantitative strategy to compare kinome activity/levels across samples, amongst treatments and, importantly, across time. […]
as §5

[12] = tested on: OVCAR4 cells; assay: Drug growth inhibition in cells depleted of dark kinases by siRNA (Cell Titer Glo); assay type: cell-based, human; details: increasing doses of drug
Description: OVCAR4 cells were transfected with control nontargeting or dark kinase siRNAs and treated with escalating doses of appropriate drugs.
(§9) To explore if blocking dark kinases AAK1, STK38 or MRCKA activity in combination with current therapies improves drug efficacy, OVCAR4 cells depleted of AAK1, STK38 or MRCKA were treated with increasing doses of carboplatin, olaparib, JQ1, or a variety of kinase inhibitors in clinical trials for HGSOC.
(§10) siRNA transfections were performed using 25 nM siRNA duplex and the reverse transfection protocol. 3000-5000 cells per well were added to 96 well plates with media containing the siRNA and transfection reagent (Lipofectamine RNAiMax) according to the manufacturer's instructions. In experiments where inhibitors were used, the inhibitor was added at the time of transfection. Cells were allowed to grow for 72-120 hours post-transfection prior to CellTiter Glo (Promega) analysis. Two-to-three independent experiments were performed with each cell line and siRNA. Students t tests were performed for statistical analyses and p values ≤0.05 were considered significant. For western blot studies, the same procedure was performed with volumes and cell numbers proportionally scaled to a 60 mm or 10 cm dish, and cells were collected 24-72 hours post-transfection. siRNA product numbers and manufacturers are listed in Table 5.

[13] = tested on: carboplatin-resistant COV362 cells; assay: Carboplatin response in cells depleted of MRCKA by siRNA; assay type: cell-based, human
Description: (§11) Cells transfected with control or MRKCA siRNAs were treated with increasing doses of carboplatin. Cell viability was assessed by Cell Titer Glo according to manufacturer's instructions. Data represent the mean of six replicates. GR50 were determined using PRISM.
as §9
as §10, with “For western blot studies, the same procedure was performed with volumes and cell numbers proportionally scaled to a 60 mm or 10 cm dish, and cells were collected 24-72 hours post-transfection. siRNA product numbers and manufacturers are listed in Table 5.” left out

[14] = tested on: HGSOC cells; assay: Drug response in cells depleted of MRCKA by siRNA (Cell Titer Glo, cleaved PARP blots); assay type: cell-based, human
Description: as §11
Cells transfected with control or MRKCA siRNAs were treated with increasing doses of olaparib. Cell viability was assessed by Cell Titer Glo according to manufacturer's instructions. Data represent the mean of six replicates. GR50 were determined using PRISM.
as §9, §10

Chain of MRCKA (Q5VT25 whole entry): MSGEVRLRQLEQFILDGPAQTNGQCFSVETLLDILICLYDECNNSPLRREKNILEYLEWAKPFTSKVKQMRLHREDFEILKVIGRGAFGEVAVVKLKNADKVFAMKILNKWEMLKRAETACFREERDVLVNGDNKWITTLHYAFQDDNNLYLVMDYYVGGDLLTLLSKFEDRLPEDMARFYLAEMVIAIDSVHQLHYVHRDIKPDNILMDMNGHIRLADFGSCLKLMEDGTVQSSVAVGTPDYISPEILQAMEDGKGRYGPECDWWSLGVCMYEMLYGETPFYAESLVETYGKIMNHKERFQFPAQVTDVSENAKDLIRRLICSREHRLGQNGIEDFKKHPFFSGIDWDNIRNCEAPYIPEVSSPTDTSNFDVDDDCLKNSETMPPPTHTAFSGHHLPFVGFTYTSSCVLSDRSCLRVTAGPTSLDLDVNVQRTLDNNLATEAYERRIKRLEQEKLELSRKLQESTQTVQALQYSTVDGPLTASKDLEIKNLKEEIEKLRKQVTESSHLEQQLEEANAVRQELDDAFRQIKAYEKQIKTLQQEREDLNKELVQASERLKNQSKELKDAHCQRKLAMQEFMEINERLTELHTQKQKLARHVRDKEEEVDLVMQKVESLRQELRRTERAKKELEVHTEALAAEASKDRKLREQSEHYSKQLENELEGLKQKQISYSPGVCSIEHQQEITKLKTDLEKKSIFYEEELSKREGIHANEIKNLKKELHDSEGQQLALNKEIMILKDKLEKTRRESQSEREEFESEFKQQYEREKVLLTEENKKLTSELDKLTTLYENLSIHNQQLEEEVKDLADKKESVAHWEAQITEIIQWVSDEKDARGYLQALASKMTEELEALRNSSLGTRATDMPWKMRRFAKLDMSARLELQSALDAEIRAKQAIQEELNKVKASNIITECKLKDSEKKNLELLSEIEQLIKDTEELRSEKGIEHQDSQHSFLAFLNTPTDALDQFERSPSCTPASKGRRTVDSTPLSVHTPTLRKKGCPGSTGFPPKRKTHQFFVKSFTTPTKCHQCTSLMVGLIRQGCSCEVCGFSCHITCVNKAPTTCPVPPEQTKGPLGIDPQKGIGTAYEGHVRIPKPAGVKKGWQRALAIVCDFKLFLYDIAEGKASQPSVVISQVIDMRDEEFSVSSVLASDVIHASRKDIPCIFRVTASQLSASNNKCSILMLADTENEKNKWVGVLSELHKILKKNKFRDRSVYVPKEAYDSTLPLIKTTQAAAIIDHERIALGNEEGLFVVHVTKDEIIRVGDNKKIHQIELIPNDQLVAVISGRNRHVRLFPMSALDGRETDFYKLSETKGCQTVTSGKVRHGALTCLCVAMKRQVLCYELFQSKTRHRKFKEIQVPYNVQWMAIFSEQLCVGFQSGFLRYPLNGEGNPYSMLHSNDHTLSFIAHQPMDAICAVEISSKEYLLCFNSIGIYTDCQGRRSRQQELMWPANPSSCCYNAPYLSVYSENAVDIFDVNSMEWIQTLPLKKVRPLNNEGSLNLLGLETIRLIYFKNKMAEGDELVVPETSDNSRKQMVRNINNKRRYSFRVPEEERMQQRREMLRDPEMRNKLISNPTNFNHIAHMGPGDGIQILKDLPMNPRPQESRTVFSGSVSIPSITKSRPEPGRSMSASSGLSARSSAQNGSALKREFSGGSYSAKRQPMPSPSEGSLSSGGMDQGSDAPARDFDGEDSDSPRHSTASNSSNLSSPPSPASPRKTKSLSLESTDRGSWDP

SMILES: CS(=O)(=O)CCNCc1ccc(-c2ccc3ncnc(Nc4ccc(OCc5cccc(F)c5)c(Cl)c4)c3c2)o1 [Lapatinib]
- MIB-binding of MRCKA relative to DMSO [1]: no effect
- Kinase inhibition profile of HGSOC cells (growth inhibition, Cell Titer Glo) [2]: 0.9704
- Kinase inhibition profile of HGSOC cells (growth inhibition, Cell Titer Glo) [3]: 0.15
- Kinase inhibition profile of HGSOC cells (growth inhibition, Cell Titer Glo) [4]: 0.974
- Kinase inhibition profile of HGSOC cells (growth inhibition, Cell Titer Glo) [5]: 1.053
- Kinase inhibition profile of HGSOC cells (growth inhibition, Cell Titer Glo) [6]: 0.9973
- MIB-binding of MRCKB relative to DMSO [7]: no effect

- MIB-binding of ROCK1 [9]: reduction in MIB-binding
SMILES: O=C(NCc1cccc(O)c1)Nc1nc(-c2ccncc2)cs1 [RKI-1447]
- FAK1, MLC and Paxillin phosphorylation [8]: reduced

SMILES: Cc1nc(Nc2[nH]nc3c2CN(C(=O)N[C@H](CN(C)C)c2ccccc2)C3(C)C)c2sccc2n1 [PF03758039]
- cell viability of HGSOC cells [10]: reduced cell viability to the greatest extent in OVCAR4 and KURMAOCHI cells
- Kinase inhibition profile of HGSOC cells (growth inhibition, Cell Titer Glo) [2]: 0.4783
- Kinase inhibition profile of HGSOC cells (growth inhibition, Cell Titer Glo) [3]: 0.3505
- Kinase inhibition profile of HGSOC cells (growth inhibition, Cell Titer Glo) [4]: 0.2063
- Kinase inhibition profile of HGSOC cells (growth inhibition, Cell Titer Glo) [5]: 0.659
- Kinase inhibition profile of HGSOC cells (growth inhibition, Cell Titer Glo) [6]: 0.4916

- MIB-binding of MRCKA relative to DMSO [1]: no effect
- MIB-binding of MRCKB relative to DMSO [7]: no effect
SMILES: Fc1ccc(Cl)cc1-c1nc(Nc2ccncc2)c2nccnc2n1 [SD-208]

SMILES: CCn1c(-c2nonc2N)nc2cncc(C(=O)N3CC[C@H](N)C3)c21 [SB-772077-B]
- FAK1, MLC and Paxillin phosphorylation [8]: reduced
- MIB-binding of ROCK2 [11]: reduction in MIB-binding

SMILES: N.N.O=C([O-])C1(C(=O)[O-])CCC1.[Pt+2] [carboplatin]
- growth inhibition by drug with MRCKA knockdown relative to non-targeting control siRNA [12]: enhanced growth inhibition
- cell growth and apoptosis, MRCKA knockdown in combination with drug [13]: inhibited cell growth and induced apoptosis
- apoptosis (cleaved PARP) of drug plus MRCKA depletion ([14]; HGSOC cell lines): induced apoptosis better than individual therapies
- effect of drug on cell viability with MRCKA depletion ([14]; additional HGSOC cell lines, increasing doses): enhanced the effect of carboplatin

SMILES: O=C(c1cc(Cc2n[nH]c(=O)c3ccccc23)ccc1F)N1CCN(C(=O)C2CC2)CC1 [olaparib]
- growth inhibition by drug with MRCKA knockdown relative to non-targeting control siRNA [12]: enhanced growth inhibition
- growth inhibitory and apoptotic response to drug with MRCKA knockdown ([14]; HGSOC cells, increasing doses): improved the growth inhibitory and apoptotic response

- MIB-binding of ROCK2 [11]: reduction in MIB-binding
- MIB-binding of MRCKA relative to DMSO [1]: Reduced MIB-binding
- MIB-binding of ROCK1 [9]: reduction in MIB-binding
- MIB-binding of MRCKB relative to DMSO [7]: Reduced MIB-binding
SMILES: CC1=C(C(=O)Nc2cc(Cl)c3[nH]ncc3c2)C(c2ccc(C(F)(F)F)cc2)CC(=O)N1 (stereo not drawn) [GSK466317A]
- FAK1, MLC and Paxillin phosphorylation [8]: reduced
